From ChEMBL document CHEMBL1156829 (Proc Natl Acad Sci U S A, 2008) come the findings set out here.

Data set [1] can be described thus: NOVARTIS: Cytotoxicity against human hepatocellular carcinoma cell line (Huh7). Type of data set: toxicity, cell-based, Huh-7. As to conditions: Huh7 cells (hepatocellular carcinoma cell line).
For data set [2], the system named is Plasmodium falciparum. Nature of the data set: NOVARTIS: Inhibition of Plasmodium falciparum W2 (drug-resistant) proliferation in erythrocyte-based infection assay. Type of data set: functional, organism-based. The conditions noted are these: Plasmodium falciparum, W2; read-out: EC50.
Data set [3] relates to Plasmodium falciparum. Nature of the data set: NOVARTIS: Inhibition of Plasmodium falciparum 3D7 (drug-susceptible) proliferation in erythrocyte-based infection assay. Type of data set: functional, organism-based. The conditions noted are these: Plasmodium falciparum, 3D7.

In data set [1], `CCOc1ccc(-c2nc(NC(=O)Cc3cccc(OC)c3)sc2C)cc1` yielded a CC50 of more than 10 µM. For the same compound, the EC50 was found to be 417 nM in the data set on Plasmodium falciparum [2] and 273 nM in the data set with Plasmodium falciparum [3].
For `c1ccc2cc3c(N4CCN(CCCN5CCN(c6ccnc7cc8ccccc8cc67)CC5)CC4)ccnc3cc2c1`, in that order: more than 10 µM, 417 nM and 79.4 nM.
The matching figures for `Brc1ccc(Nc2nc3ccccc3nc2Nc2ccc(Br)cc2)cc1`: 20.6 µM, 854 nM and 809 nM.
The matching figures for `CCOC(=O)CSC1=Nc2ccccc2C2=NC(Cc3ccccc3)C(=O)N12` (stereo not given): more than 10 µM, 407 nM and more than 1250 nM.
The compound `CC(=NNC(=O)c1ccc([N+](=O)[O-])cc1)c1cccc([N+](=O)[O-])c1` showed a CC50 in data set [1] of more than 10 µM. Besides, the figures for the EC50 with Plasmodium falciparum [2] and in the data set on Plasmodium falciparum [3] were more than 406 nM and more than 1410 nM, respectively.
The matching figures for `CCn1c(SCC(=O)Nc2ccc(OC)cc2)nc2ccsc2c1=O`: more than 11.7 µM, 475 nM and more than 1250 nM.
`Cc1ccc(C)c(NC2=C(c3ccc(C(F)(F)F)cc3)C(=O)c3ccccc32)c1`: the CC50 in data set [1] was more than 100 µM. The results for the EC50 with Plasmodium falciparum [2] and in the data set with Plasmodium falciparum [3] were 4220 nM and 1850 nM, respectively.
In turn, `CCCCN(C)CCCNC(=O)c1ccc(Cl)c(NC(=O)Nc2ccc(Cl)c(Cl)c2)c1` came in with a CC50 in data set [1] of 20.3 µM. In addition, the EC50 in the data set with Plasmodium falciparum [2] was determined as 822 nM; in the data set on Plasmodium falciparum [3], 233 nM.
Regarding `O=C(NC1CCN(Cc2ccccc2)CC1)[C@@H](c1ccccc1)N1Cc2ccccc2C1=O`, in data set [1], the CC50 was more than 100 µM. Also, the EC50 is 4210 nM in the data set on Plasmodium falciparum [2] and more than 12500 nM in the data set with Plasmodium falciparum [3].
`Oc1ccc(-c2cncc(NCc3ccc(Cl)cc3)c2)cc1` came in with a CC50 in data set [1] of more than 10 µM. In addition, the values for the EC50 with Plasmodium falciparum [2] and with Plasmodium falciparum [3] were 405 nM and 439 nM, respectively.
The matching figures for `Cc1ccc(CN2CCN(Cc3cn(C(C)C)c4ccccc34)CC2CCO)o1` (stereo not given): more than 100 µM, 4210 nM and more than 12500 nM.
For `C=CCNC(=O)c1ccc2c(c1)N=CN(CCOc1ccccc1)C2`, in that order: more than 10 µM, 419 nM and 441 nM.
For `OCCNc1nc(Nc2ccccc2O)nc2ccccc12`, in that order: 58.7 µM, 2470 nM and 1860 nM.
`COc1cccc(C(=O)N(CCCC(C)Nc2cc(OC)cc3cccnc23)Cc2ccc(F)cc2)c1` (stereo not given) came in with a CC50 in data set [1] of 3.73 µM. Moreover, the figures for the EC50 in the data set on Plasmodium falciparum [2] and with Plasmodium falciparum [3] were 154 nM and 666 nM, respectively.
The matching figures for `CCN(CC)c1cc(-c2ccccn2)nc(-c2ccccn2)n1`: more than 10 µM, 418 nM and 578 nM.
For `FC(F)(F)c1cccc(-c2cncc(N3CCN(c4ccccn4)CC3)n2)c1`, in that order: 45.7 µM, 1910 nM and 5770 nM.
The matching figures for `O=C(/C=C/Nc1ccccc1NS(=O)(=O)c1ccc([N+](=O)[O-])cc1)c1ccccc1`: more than 10 µM, 419 nM and more than 1250 nM.
`CCn1cc(C(=O)N2CCC(C(=O)c3nccs3)CC2)c(C)n1` displayed a CC50 in data set [1] of more than 10 µM. In addition, the EC50 is more than 418 nM in the data set on Plasmodium falciparum [2] and more than 1250 nM with Plasmodium falciparum [3].
Consider `O=C(c1ccc2c(c1)OCO2)N1CCOC(c2ccc(Cl)cc2)C1` (stereo not given), for which the CC50 in data set [1] is more than 100 µM. Further, the EC50 in the data set on Plasmodium falciparum [2] amounted to 4110 nM; in the data set with Plasmodium falciparum [3], 1630 nM.
The matching figures for `CCOc1ccc(C2C(=O)N(C3CCCCC3)CC(=O)N2Cc2ccc(F)cc2)cc1OC` (stereo not given): more than 100 µM, 4150 nM and 4560 nM.
For `Cc1ccc(-c2cc(-c3ccccc3)c(C#N)c(SCC(O)C[S+]([O-])Cc3ccccc3)n2)cc1` (stereo not given), in that order: 39.9 µM, 1650 nM and 7170 nM.
For `CCN(CC)CCCC(C)Nc1cc(/C=C/c2ccc([N+](=O)[O-])cc2)nc2cc(OC)ccc12` (stereo not given), in that order: more than 10 µM, 410 nM and 479 nM.
With `Cc1ccc(Nc2nc(NCc3ccco3)c3ccccc3n2)cc1`, the CC50 in data set [1] came out at 5.27 µM. The EC50 with Plasmodium falciparum [2] was determined as 216 nM; with Plasmodium falciparum [3] it was 126 nM.
In data set [1], `COc1cccc(-c2cc(N=C(NCc3ccco3)SC)n[nH]2)c1` yielded a CC50 of 70.4 µM. Further, the EC50 with Plasmodium falciparum [2] was 2870 nM; in the data set on Plasmodium falciparum [3], more than 11300 nM.
In the case of `Ic1ccc(NCc2cn3ccccc3n2)cc1`, the 50% cytotoxic concentration (CC50) in data set [1] was more than 100 µM. Further, the EC50 with Plasmodium falciparum [2] turned out to be 4070 nM; in the data set on Plasmodium falciparum [3], 6370 nM.
The matching figures for `O=c1cc(NC2CCN(CCCc3ccccc3)CC2)c2cc(Cl)ccc2o1`: 20.5 µM, 863 nM and 408 nM.
The matching figures for `CCN(CC)CCCN(Cc1cc2cc3c(cc2[nH]c1=O)OCCO3)C(=S)Nc1cccc(Cl)c1`: 21.2 µM, 890 nM and 1160 nM.
In data set [1], `CCCCCCCCOC(=O)NCCCCCCNC(=O)OCCCCCCCC` showed a CC50 of more than 100 µM. The EC50 with Plasmodium falciparum [2] was 4190 nM; in the data set on Plasmodium falciparum [3] it was more than 12500 nM.
The matching figures for `O=C1c2cccc3c(C4=NN(c5ccccc5)C(c5ccc(Cl)cc5)C4)ccc(c23)C(=O)N1c1ccccc1` (stereo not given): more than 10 µM, 407 nM and more than 1250 nM.
As to `COc1ccc2nc(C)cc(Nc3ccc(Oc4ccc(Cl)c5ccccc45)c(Cl)c3)c2c1`, it took 19.8 µM to reach half-maximal cytotoxicity in data set [1] (CC50). Besides, the figures for the EC50 with Plasmodium falciparum [2] and in the data set with Plasmodium falciparum [3] were 826 nM and 365 nM, respectively.
For `CC1(C)Oc2ccc3ccc(=O)oc3c2CC1=NNC(N)=S`, in that order: more than 100 µM, 4190 nM and more than 12500 nM.
In data set [1], `O=C(CCl)Nc1ccc2c(c1)OCO2` registered a CC50 of 20.3 µM. For the same compound, the EC50 in the data set with Plasmodium falciparum [2] amounted to 831 nM; with Plasmodium falciparum [3] it was 1900 nM.
For `N#Cc1sccc1NS(=O)(=O)c1ccc(Cl)cc1`, in that order: more than 10 µM, more than 413 nM and more than 1250 nM.
Turning to `CCOC(=O)c1sc(Nc2c(Cl)cc(S(N)(=O)=O)cc2Cl)nc1C`, in data set [1], the CC50 is more than 10 µM. Moreover, the EC50 in the data set on Plasmodium falciparum [2] is 411 nM; in the data set on Plasmodium falciparum [3], more than 1250 nM.
With `C=C(C)[C@@H]1CC=C(CN2C[C@H](NC(=O)c3ccc(OC)cc3OC)C[C@H]2C(=O)OC)CC1`, the CC50 in data set [1] was more than 10 µM. Also, the EC50 with Plasmodium falciparum [2] was 409 nM; in the data set on Plasmodium falciparum [3], 815 nM.
In turn, `CCOc1ccc(/C=C(/C#N)c2nc3ccccc3[nH]2)cc1OC` came in with a CC50 in data set [1] of more than 10 µM. In addition, the EC50 with Plasmodium falciparum [2] is 405 nM; with Plasmodium falciparum [3], 1500 nM.
In data set [1], `O=C1C(Nc2ccccc2)=C(n2nnc3ccccc32)C(=O)c2ccccc21` came in with a CC50 of 6.3 µM. Further, the EC50 with Plasmodium falciparum [2] was found to be 259 nM; in the data set on Plasmodium falciparum [3], 2020 nM.
The matching figures for `CC[n+]1c(/C=C/C=C2\N(C)c3ccccc3C2(C)C)n(CCCOC(C)=O)c2ccccc21`: more than 10 µM, 416 nM and 322 nM.
As to `Cc1ccc(-c2cn3c([n+]2-c2ccc(C)cc2)CCCCC3)cc1`, the CC50 in data set [1] came to 10.9 µM. Further, the EC50 with Plasmodium falciparum [2] amounted to 459 nM; in the data set with Plasmodium falciparum [3] it was 999 nM.
The matching figures for `O=C(c1ccccc1)N1CCc2nc(Cc3ccc(F)cc3Cl)sc2C1`: more than 57.4 µM, 2360 nM and 4400 nM.
